Where “and” joins values, the source holds several entries; their conditions need not be identical. Identical values can stand only once.
Target: 72 kDa type IV collagenase (Homo sapiens, UniProt P08253)
Experiment: Inhibitory activity against matrix metalloprotease-2 (MMP-2).

Sequence of 72 kDa type IV collagenase (P08253 whole entry): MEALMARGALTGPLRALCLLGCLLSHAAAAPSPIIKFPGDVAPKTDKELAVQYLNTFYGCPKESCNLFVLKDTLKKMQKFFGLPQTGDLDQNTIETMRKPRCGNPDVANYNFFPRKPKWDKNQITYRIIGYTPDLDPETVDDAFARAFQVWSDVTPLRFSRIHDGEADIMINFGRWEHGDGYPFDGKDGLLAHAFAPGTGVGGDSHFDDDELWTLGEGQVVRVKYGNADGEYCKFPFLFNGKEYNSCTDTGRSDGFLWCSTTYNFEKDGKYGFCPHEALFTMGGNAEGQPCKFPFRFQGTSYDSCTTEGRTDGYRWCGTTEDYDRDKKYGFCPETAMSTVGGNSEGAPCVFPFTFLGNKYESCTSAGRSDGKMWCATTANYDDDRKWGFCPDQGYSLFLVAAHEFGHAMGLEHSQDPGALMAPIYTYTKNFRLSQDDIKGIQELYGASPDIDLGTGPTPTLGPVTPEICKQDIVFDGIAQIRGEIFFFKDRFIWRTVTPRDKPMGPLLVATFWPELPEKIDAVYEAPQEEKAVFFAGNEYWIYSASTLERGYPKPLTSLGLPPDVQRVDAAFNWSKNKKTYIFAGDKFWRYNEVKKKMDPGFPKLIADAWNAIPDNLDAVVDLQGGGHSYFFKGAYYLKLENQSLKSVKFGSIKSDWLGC

SMILES	IC50
O=C(CN(C(=O)CN(CCCc1ccccc1)C(=O)Nc1ccc(Oc2ccccc2)cc1)C1CCCc2ccccc21)NO (stereo not given)	> 500 µM
O=C(CN(CCCc1ccccc1)C(=O)CN(Cc1ccccc1)C(=O)Nc1ccc(Oc2ccccc2)cc1)NO	43 µM
O=C(CN(CCCCc1ccccc1)C(=O)CN(CCCCc1ccccc1)C(=O)Nc1ccc(Oc2ccccc2)cc1)NO	52 µM
O=C(CN(CCc1ccc(F)cc1)C(=O)CN(CCCc1ccccc1)C(=O)Nc1ccc(Oc2ccccc2)cc1)NO	40 µM
O=C(CN(C(=O)CN(CCCc1ccccc1)C(=O)Nc1ccc(Oc2ccccc2)cc1)C(c1ccccc1)c1ccccc1)NO	200 µM
CCCCCCCN(CC(=O)N(CCc1ccc(F)cc1)CC(=O)NO)C(=O)Nc1ccc(Oc2ccccc2)cc1	114 µM
O=C(CN(CCCc1ccccc1)C(=O)CN(CCCc1ccccc1)C(=O)Nc1ccc(Oc2ccccc2)cc1)NO	2 µM
CCCCCCCN(CC(=O)NO)C(=O)CN(CCCc1ccccc1)C(=O)Nc1ccc(Oc2ccccc2)cc1	150 µM
CCCCCN(CC(=O)NO)C(=O)CN(CCCc1ccccc1)C(=O)Nc1ccc(Oc2ccccc2)cc1	100 µM
CCCCN(CC(=O)NO)C(=O)CN(CCCc1ccccc1)C(=O)Nc1ccc(Oc2ccccc2)cc1	230 µM
CC(C)(C)N(CC(=O)N(CC(=O)NO)CC1CCCCC1)C(=O)Nc1ccc(Oc2ccccc2)cc1	150 µM
O=C(CN(Cc1ccccc1)C(=O)CN(CC1CCCCC1)C(=O)Nc1ccc(Oc2ccccc2)cc1)NO	125 µM
CCCCN(CC(=O)N(CC(=O)NO)C(C)CC)C(=O)Nc1ccc(Oc2ccccc2)cc1 (stereo not given)	54 µM
O=C(CN(Cc1ccccc1)C(=O)CN(CCCc1ccccc1)C(=O)Nc1ccc(Oc2ccccc2)cc1)NO	0.3 µM
CCC(C)N(CC(=O)NO)C(=O)CN(CCCc1ccccc1)C(=O)Nc1ccc(Oc2ccccc2)cc1 (stereo not given)	370 µM
CCCCCN(CC(=O)NO)C(=O)CN(C(=O)Nc1ccc(Oc2ccccc2)cc1)C(C)CCC (stereo not given)	160 µM
CC(C)N(CC(=O)N(CC(=O)NO)C(C)(C)C)C(=O)Nc1ccc(Oc2ccccc2)cc1	155 µM
CCCCCCCN(CC(=O)NO)C(=O)CN(CCCCC)C(=O)Nc1ccc(Oc2ccccc2)cc1	60 µM

SMILES	IC50
CCC(C)N(CC(=O)N(CC(=O)NO)C(C)C)C(=O)Nc1ccc(Oc2ccccc2)cc1 (stereo not given)	72 µM
CC(C)N(CC(=O)NO)C(=O)CN(CCc1ccc(F)cc1)C(=O)Nc1ccc(Oc2ccccc2)cc1	90 µM
CCC(C)N(CC(=O)NO)C(=O)CN(Cc1ccccc1)C(=O)Nc1cccc2ccccc12 (stereo not given)	110 µM
CCCCN(CC(=O)NO)C(=O)CN(CCc1ccc(F)cc1)C(=O)Nc1ccc(Oc2ccccc2)cc1	51 µM
CC(C)(C)N(CC(=O)NO)C(=O)CN(CCCc1ccccc1)C(=O)Nc1ccc(Oc2ccccc2)cc1	> 500 µM
CCCCCN(CC(=O)NO)C(=O)CN(CCCCc1ccccc1)C(=O)Nc1cc(Cl)ccc1OC	> 500 µM
O=C(CN(CC1CCCCC1)C(=O)CN(CCCc1ccccc1)C(=O)Nc1ccc(Oc2ccccc2)cc1)NO	> 500 µM
CCCCN(CC(=O)NO)C(=O)CN(CC1CCCCC1)C(=O)Nc1ccc([N+](=O)[O-])cc1C	> 500 µM
CCCCCCCN(CC(=O)NO)C(=O)CN(C(=O)Nc1ccc(OCCCC)cc1)C(c1ccccc1)c1ccccc1	> 500 µM
CSc1ccccc1NC(=O)N(CCCc1ccccc1)CC(=O)N(CC(=O)NO)C(C)(C)C	150 µM
O=C(CN(C(=O)CN(C(=O)Nc1ccc(Oc2ccccc2)cc1)C1CCCc2ccccc21)C1CCCc2ccccc21)NO (stereo not given)	60 µM
O=C(CN(C(=O)CN(C(=O)Nc1ccc(Oc2ccccc2)cc1)C(c1ccccc1)c1ccccc1)C(c1ccccc1)c1ccccc1)NO	50 µM
O=C(CN(CCCCc1ccccc1)C(=O)CN(CCCc1ccccc1)C(=O)Nc1ccc(Oc2ccccc2)cc1)NO	0.9 µM and 0.3 µM
CC(C)N(CC(=O)NO)C(=O)CN(CCCc1ccccc1)C(=O)Nc1ccc(Oc2ccccc2)cc1	> 500 µM
CCCC(C)N(CC(=O)NO)C(=O)CN(C(=O)Nc1ccc2ccccc2c1)C1CCCc2ccccc21 (stereo not given)	120 µM
CCCC(C)N(CC(=O)NO)C(=O)CN(CCCc1ccccc1)C(=O)Nc1ccc(Oc2ccccc2)cc1 (stereo in doubt; form 1)	23 µM
CCCC(C)N(CC(=O)NO)C(=O)CN(CCCc1ccccc1)C(=O)Nc1ccc(Oc2ccccc2)cc1 (stereo in doubt; form 2)	100 µM
